Among the data in ChEMBL document CHEMBL1129908, “ECD peptides inhibit in vitro fertilization in mice” (Bioorg Med Chem Lett, 1997) are IC50 values, retold here.

Structures are written as SMILES. Where a SMILES comes first, the peptide text is derived from it.

In general, IC50 refers to the midpoint of a concentration-inhibition curve. A low value points to greater potency in that assay.

For the assay, the species on record is Mus musculus. The assay can be described thus: Tested for inhibition of sperm-egg fusion in in vitro mouse fertilization assays. The assay is classed as functional.

With `CC(C)C[C@H](NC(=O)[C@H](CCCN=C(N)N)NC(=O)[C@@H](N)CS)C(=O)N[C@@H](C)C(=O)N[C@@H](CCC(N)=O)C(=O)N[C@@H](CC(=O)O)C(=O)N[C@@H](CCC(=O)O)C(=O)N[C@@H](C)C(=O)N[C@@H](CC(=O)O)C(=O)N[C@H](C(=O)N[C@H](C(=O)N[C@@H](CCC(=O)O)C(=O)N[C@@H](Cc1ccc(O)cc1)C(=O)N[C@@H](CS)C(=O)O)[C@@H](C)O)C(C)C` (H-CRLAQDEADVTEYC-OH), the midpoint of inhibition, the IC50, lay at 250 µM.
